Consider 43 compounds from paper PMC5965259 (Journal of medicinal chemistry, 2018).

Each structure is given as a SMILES string. pEC50, pIC50: −log10 of the molar value.

For the first assay, the system named is bloodstream form T. brucei Lister 427. Put plainly: ATP–bioluminescence-based bloodstream form T. brucei cell viability assay. To be noted: Trypanosoma brucei, 48 h, read-out: Tb427 EC50.
On to `Nc1nccc(Nc2cc(Cl)cc(Cl)c2)n1` [Compound 8], for which the pEC50 is 5.00.

Take `Nc1nc(Cl)cc(Nc2cc(Cl)cc(Cl)c2)n1` [Compound 13]: the pEC50 is 5.05. On the same count and under the same terms, under `Nc1cc(Nc2cc(Cl)cc(Cl)c2)ccn1` [Compound 21, N^4-(3,5-Dichlorophenyl)pyridine-2,4-diamine] stands 4.96. With `Cc1cc(Nc2cc(Cl)cc(Cl)c2)ncn1` [Compound 23, N-(3,5-Dichlorophenyl)-6-methylpyrimidin-4-amine], the pEC50 is 4.57. Still for that read-out and setting: under `Cc1cc(Nc2cc(Cl)c(N(C)C)c(Cl)c2)nc(N)n1` [Compound 69, N^4-(3,5-Dichloro-4-(dimethylamino)phenyl)-6-methylpyrimidine-2,4-diamine] stands 5.24; under `Cc1cc(Nc2cc(Cl)c(N3CCOCC3)c(Cl)c2)nc(N)n1` [Compound 70, N^4-(3,5-Dichloro-4-morpholinophenyl)-6-methylpyrimidine-2,4-diamine], 4.74; under `Cc1cc(Nc2cc(Cl)c(N3CCCCC3)c(Cl)c2)nc(N)n1` [Compound 71, N^4-(3,5-Dichloro-4-(piperidin-1-yl)phenyl)-6-methylpyrimidine-2,4-diamine], 5.68. Turning to `Cc1cc(Nc2cc(Cl)c(F)c(Cl)c2F)nc(N)n1` [Compound 73, N^4-(3,5-Dichloro-2,4-difluorophenyl)-6-methylpyrimidine-2,4-diamine], the pEC50 was 5.00. On the same count and under the same terms, under `Cc1cc(Nc2ccccc2C)nc(N)n1` [Compound 77] stands less than 4.60; under `CSc1ccccc1Nc1cc(C)nc(N)n1` [Compound 78], less than 4.60. Turning to `Cc1cc(Nc2ccccc2Br)nc(N)n1` [Compound 79], the pEC50 is less than 4.60. Same read-out and setting: the result for `Cc1cc(Nc2ccc(Cl)cc2C)nc(N)n1` [Compound 82] reads less than 4.60; that for `CCc1ccc(Nc2cc(C)nc(N)n2)cc1` [Compound 86], 4.72; that for `Cc1cc(Nc2ccc(C(C)C)cc2)nc(N)n1` [Compound 87], 4.96. On the same count and under the same terms, the result for `Cc1cc(Nc2ccc(C(F)(F)F)cc2)nc(N)n1` [Compound 88] reads 4.82. With `Cc1cc(Nc2ccc(-c3cc(Cl)cc(Cl)c3)cc2)nc(N)n1` [Compound 89, N^4-(3′,5′-Dichloro-[1,1′-biphenyl]-4-yl)-6-methylpyrimidine-2,4-diamine], the negative-log EC50 (pEC50) was 6.00.

Turning to `Cc1cc(Nc2cc(Cl)cc(-c3ccc(F)cc3)c2)nc(N)n1` [Compound 91, N^4-(5-Chloro-4′-fluoro-[1,1′-biphenyl]-3-yl)-6-methylpyrimidine-2,4-diamine], the pEC50 was 5.80. For the compound `Cc1cc(Nc2cc(Cl)cc(-c3ccc(Cl)cc3)c2)nc(N)n1` [Compound 92, N^4-(4′,5-Dichloro-[1,1′-biphenyl]-3-yl)-6-methylpyrimidine-2,4-diamine], the negative-log EC50 (pEC50) is 5.66. Turning to `COc1ccc(-c2cc(Cl)cc(Nc3cc(C)nc(N)n3)c2)cc1` [Compound 93, N^4-(5-Chloro-4′-methoxy-[1,1′-biphenyl]-3-yl)-6-methylpyrimidine-2,4-diamine], the negative logarithm of the EC50 (pEC50) was 5.35. With `Cc1ccc(-c2cc(Cl)cc(Nc3cc(C)nc(N)n3)c2)cc1` [Compound 94, N^4-(5-Chloro-4′-methyl-[1,1′-biphenyl]-3-yl)-6-methylpyrimidine-2,4-diamine], the negative-log EC50 (pEC50) is 5.37.

Turning to `Cc1cc(Nc2cc(Cl)cc(-c3ccc(C(F)(F)F)cc3)c2)nc(N)n1` [Compound 95, N^4-(5-Chloro-4′-(trifluoromethyl)-[1,1′-biphenyl]-3-yl)-6-methylpyrimidine-2,4-diamine], the pEC50 is 5.70.

For the compound `Cc1cc(Nc2cc(Cl)cc(-c3ccc(C#N)cc3)c2)nc(N)n1` [Compound 96, 3′-((2-Amino-6-methylpyrimidin-4-yl)amino)-5′-chloro-[1,1′-biphenyl]-4-carbonitrile], the pEC50 is 6.00. On to `CC(=O)c1ccc(-c2cc(Cl)cc(Nc3cc(C)nc(N)n3)c2)cc1` [Compound 97, 1-(3′-((2-Amino-6-methylpyrimidin-4-yl)amino)-5′-chloro-[1,1′-biphenyl]-4-yl)ethan-1-one], for which the pEC50 was 5.17. On to `Cc1cc(Nc2cc(Cl)cc(-c3ccc(O)cc3)c2)nc(N)n1` [Compound 98, 3′-((2-Amino-6-methylpyrimidin-4-yl)amino)-5′-chloro-[1,1′-biphenyl]-4-ol], for which the pEC50 was 5.01. Same read-out and setting: under `Cc1cc(Nc2cc(Cl)cc(-c3ccc(-c4ccccc4)cc3)c2)nc(N)n1` [Compound 99, N^4-(5-Chloro-[1,1′:4′,1″-terphenyl]-3-yl)-6-methylpyrimidine-2,4-diamine] stands 6.04; under `Cc1cc(Nc2cc(Cl)cc(-c3ccc(N(C)C)cc3)c2)nc(N)n1` [Compound 100, N^4-(5-Chloro-4′-(dimethylamino)-[1,1′-biphenyl]-3-yl)-6-methylpyrimidine-2,4-diamine], 5.30.

Regarding `Cc1cc(Nc2cc(Cl)cc(-c3ccccc3Cl)c2)nc(N)n1` [Compound 101, N^4-(2′,5-Dichloro-[1,1′-biphenyl]-3-yl)-6-methylpyrimidine-2,4-diamine], the pEC50 was 5.07. Regarding `Cc1cc(Nc2cc(Cl)cc(-c3cccc(Cl)c3)c2)nc(N)n1` [Compound 102, N^4-(3′,5-Dichloro-[1,1′-biphenyl]-3-yl)-6-methylpyrimidine-2,4-diamine], the pEC50 is 5.72.

With `Cc1cc(Nc2cc(Cl)cc(-c3ccc(Cl)c(Cl)c3)c2)nc(N)n1` [Compound 103, 6-Methyl-N^4-(3′,4′,5-trichloro-[1,1′-biphenyl]-3-yl)pyrimidine-2,4-diamine], the pEC50 is 5.54. Still for that read-out and setting: under `Cc1cc(Nc2cc(Cl)cc(-c3ccc(Cl)c(C(F)(F)F)c3)c2)nc(N)n1` [Compound 105, N^4-(4′,5-Dichloro-3′-(trifluoromethyl)-[1,1′-biphenyl]-3-yl)-6-methylpyrimidine-2,4-diamine] stands 5.82; under `Cc1cc(Nc2cc(Cl)cc(-c3cc(C(F)(F)F)cc(C(F)(F)F)c3)c2)nc(N)n1` [Compound 106, N^4-(5-Chloro-3′,5′-bis(trifluoromethyl)-[1,1′-biphenyl]-3-yl)-6-methylpyrimidine-2,4-diamine], 6.28; under `Cc1cc(Nc2cc(Cl)cc(-c3ccc4ccccc4c3)c2)nc(N)n1` [Compound 107, N^4-(3-Chloro-5-(naphthalen-2-yl)phenyl)-6-methylpyrimidine-2,4-diamine], 5.77. As for `Cc1cc(Nc2cc(Cl)cc(-c3cc4ccccc4c4ccccc34)c2)nc(N)n1` [Compound 108, N^4-(3-Chloro-5-(phenanthren-9-yl)phenyl)-6-methylpyrimidine-2,4-diamine], the pEC50 is 5.74. For the compound `Cc1cc(Nc2cc(Cl)cc(-c3ccc4c(c3)OCO4)c2)nc(N)n1` [Compound 109, N^4-(3-(Benzo[d][1,3]dioxol-5-yl)-5-chlorophenyl)-6-methylpyrimidine-2,4-diamine], the pEC50 was 5.64. Turning to `Cc1cc(Nc2cc(Cl)cc(-c3ccc4nonc4c3)c2)nc(N)n1` [Compound 110, N^4-(3-(Benzo[c][1,2,5]oxadiazol-5-yl)-5-chlorophenyl)-6-methylpyrimidine-2,4-diamine], the pEC50 is 6.24. `Cc1cc(Nc2cc(Cl)cc(-c3ccoc3)c2)nc(N)n1` [Compound 111, N^4-(3-Chloro-5-(furan-3-yl)phenyl)-6-methylpyrimidine-2,4-diamine]: the pEC50 was 5.15. On to `Cc1cc(Nc2cc(Cl)cc(-c3cc4ccccc4o3)c2)nc(N)n1` [Compound 112, N^4-(3-(Benzofuran-2-yl)-5-chlorophenyl)-6-methylpyrimidine-2,4-diamine], for which the pEC50 is 5.85.

For `Cc1cc(Nc2cc(Cl)cc(-c3ccsc3)c2)nc(N)n1` [Compound 113, N^4-(3-Chloro-5-(thiophen-3-yl)phenyl)-6-methylpyrimidine-2,4-diamine], the pEC50 was 4.54. As to `Cc1cc(Nc2cc(Cl)cc(-c3cc4ccccc4s3)c2)nc(N)n1` [Compound 114, N^4-(3-(Benzo[b]thiophen-2-yl)-5-chlorophenyl)-6-methylpyrimidine-2,4-diamine], the pEC50 is 5.80. Same read-out and setting: under `Cc1cc(Nc2cc(Cl)cc(-c3cncs3)c2)nc(N)n1` [Compound 115, N^4-(3-Chloro-5-(thiazol-5-yl)phenyl)-6-methylpyrimidine-2,4-diamine] stands 5.44; under `Cc1cc(Nc2cc(Cl)cc(-c3cnn(C)c3)c2)nc(N)n1` [Compound 116, N^4-(3-Chloro-5-(1-methyl-1H-pyrazol-4-yl)phenyl)-6-methylpyrimidine-2,4-diamine], 5.17. Turning to `Cc1cc(Nc2cc(Cl)cc(-c3cncnc3)c2)nc(N)n1` [Compound 117, N^4-(3-Chloro-5-(pyrimidin-5-yl)phenyl)-6-methylpyrimidine-2,4-diamine], the pEC50 is 4.24. As to `CCc1cc(Nc2cc(C)nc(N)n2)cc(-c2ccc(F)cc2)c1` [Compound 118, N^4-(5-Ethyl-4′-fluoro-[1,1′-biphenyl]-3-yl)-6-methylpyrimidine-2,4-diamine], the pEC50 was 5.89.

For a further assay, the system named is prozyme protein levels in T. brucei cells. Put plainly: Western blot analysis of prozyme levels in treated T. brucei cells. It is filed as cell-based. Conditions: 24 h treatment at 1.5 × EC50. On the technique in general: Immunoblotting shows a protein as a band on a membrane.
In the case of `Nc1nccc(Nc2cc(Cl)cc(Cl)c2)n1` [Compound 8], the “prozyme protein level vs vehicle-only control” value was “induced prozyme above the vehicle-only control levels”.

Regarding `Nc1nc(Cl)cc(Nc2cc(Cl)cc(Cl)c2)n1` [Compound 13], the “prozyme protein level vs vehicle-only control” value is recorded as “vehicle-only levels of the prozyme protein”. `Cc1cc(Nc2cc(Cl)cc(Cl)c2)ncn1` [Compound 23, N-(3,5-Dichlorophenyl)-6-methylpyrimidin-4-amine]: the “prozyme protein level vs vehicle-only control” value is reported as “vehicle-only levels of the prozyme protein”.

The next assay addresses T1, T. brucei AdoMetDC/prozyme (Trypanosoma brucei brucei, UniProt P50244).
T1 sequence (P50244 86-370 limits assumed): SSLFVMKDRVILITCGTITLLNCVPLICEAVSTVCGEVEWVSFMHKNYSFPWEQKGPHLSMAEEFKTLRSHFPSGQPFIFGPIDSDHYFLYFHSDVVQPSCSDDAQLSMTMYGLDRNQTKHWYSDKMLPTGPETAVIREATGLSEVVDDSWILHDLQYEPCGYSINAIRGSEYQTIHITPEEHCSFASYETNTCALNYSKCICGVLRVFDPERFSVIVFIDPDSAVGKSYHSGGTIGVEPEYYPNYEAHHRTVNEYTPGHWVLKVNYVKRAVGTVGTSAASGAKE
The experiment in a line: biochemical. To be noted: Tb IC50, pH 7.2; mean, triplicate, 95% CI in parentheses.
Turning to `Nc1cc(Nc2cc(Cl)cc(Cl)c2)ccn1` [Compound 21, N^4-(3,5-Dichlorophenyl)pyridine-2,4-diamine], the pIC50 was 4.54.

By pEC50 is commonly meant the EC50 on a negative log10 scale, so that one unit is a factor of ten. One may read the pIC50 as −log10 of the IC50, conventionally taken in molar units.
